From patent US6620910B1, “Peptide compounds analogues of the glucagon-like peptide-1 (7-37)” (Les Laboratoires Servier, priority 1998, dated 2003)

Tests used:
[1] = molecular target: dipeptidyl peptidase IV (DPP IV) (Homo sapiens, UniProt P27487); test: Metabolic stability towards dipeptidyl peptidase IV; type: in vitro ADME
Experimental: Each compound is dissolved in 50 mg/ml of BSA in an aqueous 1% trifluoroacetic acid solution to obtain a concentration of 1 mg/ml.
50 μl samples of the above-prepared solution containing 1 mg/ml of the peptide are added to 940 μl of 0.1M TRIS, pH 8.0. After analysis of the solution by HPLC to determine the amount of peptide, 10 μl of an aqueous solution containing 48 milli-units of dipeptidyl peptidase IV (DPP IV) are added, and the samples are analysed by HPLC at time T0 and after incubation for 10 minutes at 37° C.
The measurement results enable evaluation of the amount of peptide remaining and are expressed as a percentage in relation to T0.

[2] = in vitro; type: in vitro ADME; details: human, plasma
Experimental: An aliqout of 50 μg/ml of a solution containing the peptide to be studied is incubated in human plasma at 37° C. An HPLC linear analysis method allows measurement of the amount of peptide at time T0, then after incubation for 5, 10, 15, 30 and 60 minutes.

[3] = molecular target: T1, GLP-1 receptor (Rattus norvegicus, UniProt P32301); test: Agonist character: cyclic AMP production in RIN T3 cells; type: cell-based; details: 20 minutes at 25° C., 100% = cAMP induced by 10^−8M GLP-1
T1 construct: endogenous in cells; host or cells: RIN T3 cells (membranes in A1, whole cells in A2)
T1 sequence (P32301 22-463): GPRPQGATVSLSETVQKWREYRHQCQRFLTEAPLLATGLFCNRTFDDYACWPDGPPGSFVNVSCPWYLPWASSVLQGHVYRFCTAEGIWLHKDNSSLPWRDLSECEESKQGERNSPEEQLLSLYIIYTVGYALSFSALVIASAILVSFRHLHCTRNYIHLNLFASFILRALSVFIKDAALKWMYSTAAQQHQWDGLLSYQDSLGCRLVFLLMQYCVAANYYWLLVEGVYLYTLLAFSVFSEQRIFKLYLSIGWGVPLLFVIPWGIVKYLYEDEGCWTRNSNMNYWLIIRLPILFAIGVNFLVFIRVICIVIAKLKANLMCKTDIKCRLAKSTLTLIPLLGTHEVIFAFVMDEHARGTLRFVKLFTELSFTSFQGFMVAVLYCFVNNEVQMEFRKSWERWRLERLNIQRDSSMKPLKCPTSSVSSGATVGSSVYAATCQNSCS
Experimental: The agonist character of the compounds of the invention was determined by measuring the production of cyclic AMP after activation of the receptor by the different products being tested.
RIN T3 cells are cultured for 6 days and the culture medium is chanced 1 day before the experiment. The cells (3×10^5 per well) are washed twice with DMEM before the addition of 0.5 ml of DMEM containing 1% BSA, 0.2 ml of IBMX and the peptide being tested. After incubation for 20 minutes at 25° C., the intracellular cAMP is extracted, succinylated and quantified by radioimmunoassay.
The reference value of 100% corresponds to the production of cAMP induced by a concentration of 10^−8M GLP-1 and the value 0% corresponds to the basal production in the absence of GLP-1.

[4] = molecular target: T1, GLP-1 receptor; test: GLP-1 receptor binding study (RIN T3 membranes, [125I]-GLP-1); details: [125I]-GLP-1, 45 min at 37° C., read-out: affinity (IC50)
Experimental: The GLP-1 receptor binding studies were carried out using RIN T3 membranes in a […] Tris-HCl buffer pH 7.5 containing 4% BSA and […] of bacitracin. The membranes (20 to 30 μg) are incubated in a final volume of 500 μl with approximately 15 fmol of [125I]-GLP-1 (50,000 cpm) and the cold competitor for 45 min. at 37° C. The reaction is stopped by the addition of 750 μl of cold KRP buffer, pH 7.5, containing 3% BSA. The mixture is centrifuged at 12,000×g (4° C., 5 min). The residue is resuspended in 1 ml of cold KRP buffer and sedimented by a further centrifugation, and the radioactivity is measured. The results are expressed as IC50.

Chain of dipeptidyl peptidase IV (DPP IV) (P27487 whole entry, species assumed): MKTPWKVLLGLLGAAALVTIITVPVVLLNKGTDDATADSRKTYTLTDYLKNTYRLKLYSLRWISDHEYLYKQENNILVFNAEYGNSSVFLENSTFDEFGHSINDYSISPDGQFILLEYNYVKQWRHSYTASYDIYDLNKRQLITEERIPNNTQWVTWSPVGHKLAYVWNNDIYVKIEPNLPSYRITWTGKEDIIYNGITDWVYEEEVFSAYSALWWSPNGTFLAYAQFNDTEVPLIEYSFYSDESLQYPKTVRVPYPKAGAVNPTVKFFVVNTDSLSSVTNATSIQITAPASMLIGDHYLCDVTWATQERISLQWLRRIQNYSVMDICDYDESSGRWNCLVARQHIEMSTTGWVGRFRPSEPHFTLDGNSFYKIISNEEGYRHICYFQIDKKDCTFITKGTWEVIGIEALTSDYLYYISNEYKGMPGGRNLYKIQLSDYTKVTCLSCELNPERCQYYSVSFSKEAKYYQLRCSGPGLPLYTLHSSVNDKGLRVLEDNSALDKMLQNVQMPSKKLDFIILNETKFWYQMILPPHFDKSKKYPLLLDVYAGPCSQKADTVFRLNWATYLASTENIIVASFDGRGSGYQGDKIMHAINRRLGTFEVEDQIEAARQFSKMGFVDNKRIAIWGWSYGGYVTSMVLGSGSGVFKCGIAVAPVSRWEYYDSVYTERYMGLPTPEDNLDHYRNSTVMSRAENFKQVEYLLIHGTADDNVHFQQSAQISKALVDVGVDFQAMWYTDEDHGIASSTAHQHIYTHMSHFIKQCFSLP

remaining at 5 min, 50 μg/ml [2]	remaining at 10 min, 50 μg/ml [2]	remaining at 0.25 h, 50 μg/ml [2]	remaining at 0.5 h, 50 μg/ml [2]	remaining at 1 h, 50 μg/ml [2]	EC50 [3]	IC50 [4]	remaining at 10 min, 50 μg/ml ([1]; isolated enzyme dpp iv, pH 8)	Compound	DDP IV % peptide remaining ([1]; incubation time 10 minutes, 37° C., 48 milli-units DPP IV, 0.1M TRIS pH 8.0, relative to T0)
								Glucagon-Like Peptides-1 (7-37) and (7-36) NH2 [^tGLP1, reference compound]	8%
100%	100%	100%	100%	100%	1020 pM	330 pM	100%	CC[C@H](C)[C@H](NC(=O)[C@H](Cc1ccccc1)NC(=O)[C@H](CCC(=O)O)NC(=O)[C@H](CCCCN)NC(=O)[C@H](C)NC(=O)[C@H](C)NC(=O)[C@H](CCC(N)=O)NC(=O)CNC(=O)[C@H](CCC(=O)O)NC(=O)[C@H](CC(C)C)NC(=O)[C@H](Cc1ccc(O)cc1)NC(=O)[C@H](CO)NC(=O)[C@H](CO)NC(=O)[C@@H](NC(=O)[C@H](CC(=O)O)NC(=O)[C@H](CO)NC(=O)[C@@H](NC(=O)[C@H](Cc1ccccc1)NC(=O)[C@@H](NC(=O)CNC(=O)[C@H](CCC(=O)O)NC(=O)[C@@H](C)NC(=O)[C@@H](N)Cc1c[nH]cn1)[C@@H](C)O)[C@@H](C)O)C(C)C)C(=O)N[C@@H](C)C(=O)N[C@@H](Cc1c[nH]c2ccccc12)C(=O)N[C@@H](CC(C)C)C(=O)N[C@H](C(=O)N[C@@H](CCCCN)C(=O)NCC(=O)NCC(N)=O)C(C)C [Example 7]	
